In US10702556B2, “Compositions and methods for inducing angiogenesis” (MINOVIA THERAPEUTICS LTD., priority 2012, dated 2020):

System: mouse aortic rings
Test: Mouse aortic ring sprouting (ex-vivo angiogenesis)
Type: cell-based
Procedure: Thoracic aorta were removed from female C57/BL mice and cut into 0.5 mm rings. Aortic rings were incubated in serum-free medium and either left untreated or treated with 0.5 μM Rotenone for 4 hours. To assess mitochondria effect on sprouting of aortic rings, half of the non-treated rings were washed and incubated with 25 μg of C57/BL mouse placental mitochondria in 2 ml serum-free medium. After 24 hours the rings were embedded in rat tail collagen, one ring per well in a 96 wells plate. After 8 days in culture the level of sprouting was evaluated by counting the number of vessels per ring.
The effect of VEGF, mitochondria and mitochondria+VEGF on sprouting of aortic rings in-vitro was examined Mouse aortic rings were prepared as described in example 7 and were either left un-treated (NT), treated with 25 μg mouse placental mitochondria in 2 ml OptiMem medium for 24 h (Mito), incubated in OptiMem medium containing 2.5% FBS and 30 ng/ml mouse VEGF for 48 h (VEGF) or treated with both mitochondria and VEGF (VEGF+Mito). The number of new blood vessels sprouting from the aortic rings was counted on day 8.
Mouse aortic rings were prepared as described in example 7 and were either left un-treated or treated with increasing amounts (2-350 μg) of mouse placental mitochondria in 2 ml OptiMem medium for 24 h. The number of new blood vessels sprouting from the aortic rings was counted on day 7.
The effect of mitochondria on the number of blood vessels was evaluated in a mouse aortic ring model. Mouse aortic rings were prepared as described in example 7 and were either left un-treated (Control), treated for 24 h with 25 μg of mouse placental mitochondria (Mito), treated with mitochondria that were inhibited by 2 μM of mitochondria complex I inhibitor Rotenone or treated with mitochondria that were inhibited with 5 μM of the ATP Synthase inhibitor Oligomycin for 24 h. The number of new blood vessels sprouting from the aortic rings was counted on day 8.

Question: With VEGF as the molecule, how does the “number of new blood vessels sprouting from the aortic rings, comparison between treated groups” value (25 μg mitochondria 24 h, 30 ng/ml mouse VEGF 48 h, or both, day 8) read?
Answer: The value was “no significant difference”.

Question: How did the “number of vessels per ring (sprouting)” value (0.5 μM Rotenone for 4 hours, 8 days in culture) turn out when `C=C(C)[C@H]1Cc2c(ccc3c2O[C@@H]2COc4cc(OC)c(OC)cc4[C@@H]2C3=O)O1` [Rotenone] was run?
Answer: Its value is “blocked the sprouting almost completely”.
